In patent US20240252506A1 (Hoffmann-La Roche Inc., priority 2021, published 2024):
In brackets after ≈: the same amount, converted by molar mass. Where a name gives a salt, the structure may show the parent alone.

What follows are molecules tested on Escherichia coli ATCC 25922 (assay: Minimal Inhibitory Concentration (MIC) determination, broth microdilution (CLSI M07-A10)). Conditions: Escherichia coli, ATCC25922, strain Escherichia coli ATCC 25922, 18-24 hours at 35±2° C., lowest concentration for complete growth inhibition (no visible growth), read-out: Escherichia coli growth inhibition MIC.
Type: cell-based
Outline: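 MIC read visually as the lowest concentration with complete growth inhibition after 18-24 h at 35±2° C, ambient air. Method follows CLSI M07-A10 broth microdilution, two-fold compound series, inoculum standardized to 0.5 McFarland then diluted 1:200.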

Row | Compound | MIC
1 | O=C1COc2ncc(N3CC4(CCN(CC5Cc6cc7nc([C@@H]8CCN8)oc7c(F)c6C5)CC4)OC3=O)nc2N1 (single isomer, unassigned) [Example 106] | 0.125 µg/mL (≈ 0.227 µM)
2 | C[C@H](N)Cn1cnc2c(F)c3c(c(F)c21)CC(CN1CCC2(CC1)CN(c1cnc4c(n1)NC(=O)CO4)C(=O)O2)C3 (stereo partly drawn) [Example 128, 6-[8-[[1-[(2S)-2-aminopropyl]-4,8-difluoro-6,7-dihydro-5H-cyclopenta[f]benzimidazol-6-yl]methyl]-2-oxo-1-oxa-3,8-diazaspiro[4.5]decan-3-yl]-4H-pyrazino[2,3-b][1,4]oxazin-3-one] | 0.25 µg/mL (≈ 0.44 µM)
3 | CNCc1nc2c(F)c3c(c(F)c2[nH]1)CC(CNC1CC2(C1)CN(c1cnc4c(n1)NC(=O)CO4)C(=O)O2)C3 (stereo not shown) [Example 19, 6-[2-[[4,8-difluoro-2-(methylaminomethyl)-3,5,6,7-tetrahydrocyclopenta[f]benzimidazol-6-yl]methylamino]-6-oxo-5-oxa-7-azaspiro[3.4]octan-7-yl]-4H-pyrazino[2,3-b][1,4]oxazin-3-one] | 0.5 µg/mL (≈ 0.925 µM)
4 | CNCc1nc2c(F)c3c(cc2o1)CC(CN1CCC2(CC1)CN(c1cnc4c(n1)NC(=O)CO4)C(=O)O2)C3 (stereo not shown) [Example 93, 6-[8-[[4-fluoro-2-(methylaminomethyl)-6,7-dihydro-5H-cyclopenta[f][1,3]benzoxazol-6-yl]methyl]-2-oxo-1-oxa-3,8-diazaspiro[4.5]decan-3-yl]-4H-pyrazino[2,3-b][1,4]oxazin-3-one] | 0.125 µg/mL (≈ 0.233 µM)
5 | O=C1COc2ncc(N3CC4(CCN(CC5Cc6cc7nc(C8CNC8)oc7c(F)c6C5)CC4)OC3=O)nc2N1 (single isomer, unassigned) [Example 100, 6-[2-oxo-8-[[2-(azetidin-3-yl)-8-fluoro-6,7-dihydro-5H-cyclopenta[f][1,3]benzoxazol-6-yl]methyl]-1-oxa-3,8-diazaspiro[4.5]decan-3-yl]-4H-pyrazino[2,3-b][1,4]oxazin-3-one] | 0.125 µg/mL (≈ 0.227 µM)

Now from value to molecule:

Row | MIC | Compound
6 | 1 µg/mL (≈ 1.64 µM) | CN1CCOC(c2nc3c(F)c4c(c(F)c3[nH]2)CC(CN2CCC3(CC2)CN(c2cnc5c(n2)NC(=O)CO5)C(=O)O3)C4)C1 (stereo not shown) [Example 6, 6-[8-[[4,8-difluoro-2-(4-methylmorpholin-2-yl)-3,5,6,7-tetrahydrocyclopenta[f]benzimidazol-6-yl]methyl]-2-oxo-1-oxa-3,8-diazaspiro[4.5]decan-3-yl]-4H-pyrazino[2,3-b][1,4]oxazin-3-one]
7 | 0.125 µg/mL (≈ 0.233 µM) | CNCc1nc2c3c(c(F)cc2o1)CC(CN1CCC2(CC1)CN(c1cnc4c(n1)NC(=O)CO4)C(=O)O2)C3 (stereo not shown) [Example 96, 6-[8-[[5-fluoro-2-(methylaminomethyl)-7,8-dihydro-6H-cyclopenta[e][1,3]benzoxazol-7-yl]methyl]-2-oxo-1-oxa-3,8-diazaspiro[4.5]decan-3-yl]-4H-pyrazino[2,3-b][1,4]oxazin-3-one]
8 | 2 µg/mL (≈ 3.05 µM) | CN(C)CC(=O)N(C)CCn1nnc2c(F)c3c(c(F)c21)CC(CN1CCC2(CC1)CN(c1cnc4c(n1)NC(=O)CO4)C(=O)O2)C3 (single isomer, unassigned) [Example 152, N-[2-[4,8-difluoro-6-[[2-oxo-3-(3-oxo-4H-pyrazino[2,3-b][1,4]oxazin-6-yl)-1-oxa-3,8-diazaspiro[4.5]decan-8-yl]methyl]-6,7-dihydro-5H-cyclopenta[f]benzotriazol-1-yl]ethyl]-2-(dimethylamino)-N-methyl-acetamide]
9 | 0.5 µg/mL (≈ 0.855 µM) | C[C@H](O)[C@@H](N)c1nc2c(F)c3c(c(F)c2[nH]1)CC(CN1CCC2(CC1)CN(c1cnc4c(n1)NC(=O)CO4)C(=O)O2)C3 [Example 36, 6-[8-[[2-[(1S,2S)-1-amino-2-hydroxy-propyl]-4,8-difluoro-3,5,6,7-tetrahydrocyclopenta[f]benzimidazol-6-yl]methyl]-2-oxo-1-oxa-3,8-diazaspiro[4.5]decan-3-yl]-4H-pyrazino[2,3-b][1,4]oxazin-3-one]
10 | 0.25 µg/mL | O=C(O)C(F)(F)F.O=C1COc2ncc(N3CC4(CCN(CC5Cc6c(c(F)c7[nH]c([C@@H]8CC(O)CCN8)nc7c6F)C5)CC4)OC3=O)nc2N1 (stereo partly drawn) [Example 28, 6-[8-[[4,8-difluoro-2-[(2S)-4-hydroxy-2-piperidyl]-3,5,6,7-tetrahydrocyclopenta[f]benzimidazol-6-yl]methyl]-2-oxo-1-oxa-3,8diazaspiro[4.5]decan-3-yl]-4H-pyrazino[2,3-b][1,4]oxazin-3-one; 2,2,2-trifluoroacetic acid]
11 | 0.125 µg/mL (≈ 0.22 µM) | CN[C@@H](C)c1nc2c(F)c3c(c(F)c2[nH]1)CC(CN1CCC2(CC1)CN(c1cnc4c(n1)NC(=O)CO4)C(=O)O2)C3 [Example 38, 6-[8-[[4,8-difluoro-2-[(1S)-1-(methylamino)ethyl]-3,5,6,7-tetrahydrocyclopenta[f]benzimidazol-6-yl]methyl]-2-oxo-1-oxa-3,8-diazaspiro[4.5]decan-3-yl]-4H-pyrazino[2,3-b][1,4]oxazin-3-one]
12 | 0.25 µg/mL (≈ 0.44 µM) | CNCc1nc2c(F)c3c(c(F)c2n1C)CC(CN1CCC2(CC1)CN(c1cnc4c(n1)NC(=O)CO4)C(=O)O2)C3 (stereo not shown) [Example 33, 6-[8-[[4,8-difluoro-1-methyl-2-(methylaminomethyl)-6,7-dihydro-5H-cyclopenta[f]benzimidazol-6-yl]methyl]-2-oxo-1-oxa-3,8-diazaspiro[4.5]decan-3-yl]-4H-pyrazino[2,3-b][1,4]oxazin-3-one]

Same assay, conditions: strain Escherichia coli ATCC 25922, 18-24 hours at 35±2° C., lowest concentration for complete growth inhibition (no visible growth)

Row | Escherichia coli growth inhibition MIC | Compound
13 | ≤0.06 µg/mL | C[C@H](N)Cn1nc2cc(F)c3c(c2n1)CC(CN1CCC2(CC1)CN(c1cnc4c(n1)NC(=O)CO4)C(=O)O2)C3 (single isomer, unassigned) [Example 88]
14 | 0.5 µg/mL | CN[C@@H](CO)c1nc2cc3c(c(F)c2o1)CC(CN1CCC2(CC1)CN(c1cnc4c(n1)NC(=O)CO4)C(=O)O2)C3 (stereo partly drawn) [Example 146, 6-[8-[[8-Fluoro-2-[(1S)-2-hydroxy-1-(methylamino)ethyl]-6,7-dihydro-5H-cyclopenta[f][1,3]benzoxazol-6-yl]methyl]-2-oxo-1-oxa-3,8-diazaspiro[4.5]decan-3-yl]-4H-pyrazino[2,3-b][1,4]oxazin-3-one]

Same assay, conditions: strain Escherichia coli ATCC 25922, 18-24 hours at 35±2° C., lowest concentration for complete growth inhibition (no visible growth), dihydrochloride

Row | Compound | Escherichia coli growth inhibition MIC
15 | NCCn1nc2cc3c(c(F)c2n1)CC(CN1CCC2(CC1)CN(c1cnc4c(n1)NC(=O)CO4)C(=O)O2)C3 (single isomer, unassigned) [Example 135, 6-[2-oxo-8-[[2-(2-aminoethyl)-8-fluoro-6,7-dihydro-5H-cyclopenta[f]benzotriazol-6-yl]methyl]-1-oxa-3,8-diazaspiro[4.5]decan-3-yl]-4H-pyrazino[2,3-b][1,4]oxazin-3-one dihydrochloride] | ≤0.06 µg/mL

Same assay, conditions: strain Escherichia coli ATCC 25922, 18-24 hours at 35±2° C., lowest concentration for complete growth inhibition (no visible growth), formic acid

Row | Escherichia coli growth inhibition MIC | Compound
16 | 0.25 µg/mL | O=C1COc2ncc(N3CC4(CCN(CC5Cc6cc7c(nnn7C7CNC7)c(F)c6C5)CC4)OC3=O)nc2N1.O=CO (single isomer, unassigned) [Example 116, 6-[2-oxo-8-[[3-(azetidin-3-yl)-8-fluoro-6,7-dihydro-5H-cyclopenta[f]benzotriazol-6-yl]methyl]-1-oxa-3,8-diazaspiro[4.5]decan-3-yl]-4H-pyrazino[2,3-b][1,4]oxazin-3-one; formic acid]
